Experimental data published in PMC4684755 (ACS chemical biology, 2015).

How the values were obtained:
ORAS = ORAS (Neurospora crassa, UniProt Q7S6N4); test: type III PKS assay, LC-HRMS; assay type: biochemical; settings: pH 8.0, room temperature, overnight
CsyA = target: T1, CsyA (Aspergillus oryzae, UniProt Q53U85); test: type III PKS assay, LC-HRMS; assay type: biochemical; settings: malonyl-CoA 2 mM, pH 8.0, room temperature, overnight
T1 sequence (Q53U85 1-402): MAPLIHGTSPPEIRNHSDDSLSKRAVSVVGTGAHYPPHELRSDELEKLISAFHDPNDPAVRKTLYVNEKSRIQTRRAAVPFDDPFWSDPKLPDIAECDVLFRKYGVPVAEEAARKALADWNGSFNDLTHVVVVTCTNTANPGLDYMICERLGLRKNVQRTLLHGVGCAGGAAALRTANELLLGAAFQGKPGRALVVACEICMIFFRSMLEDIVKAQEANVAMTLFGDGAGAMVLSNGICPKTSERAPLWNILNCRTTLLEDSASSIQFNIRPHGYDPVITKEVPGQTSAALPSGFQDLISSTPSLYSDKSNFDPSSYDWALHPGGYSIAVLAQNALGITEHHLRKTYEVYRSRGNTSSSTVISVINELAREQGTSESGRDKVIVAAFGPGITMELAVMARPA

PKS18 = PKS18 (Mycobacterium tuberculosis, UniProt P9WPF1)
Sequence of PKS18 (P9WPF1 whole entry): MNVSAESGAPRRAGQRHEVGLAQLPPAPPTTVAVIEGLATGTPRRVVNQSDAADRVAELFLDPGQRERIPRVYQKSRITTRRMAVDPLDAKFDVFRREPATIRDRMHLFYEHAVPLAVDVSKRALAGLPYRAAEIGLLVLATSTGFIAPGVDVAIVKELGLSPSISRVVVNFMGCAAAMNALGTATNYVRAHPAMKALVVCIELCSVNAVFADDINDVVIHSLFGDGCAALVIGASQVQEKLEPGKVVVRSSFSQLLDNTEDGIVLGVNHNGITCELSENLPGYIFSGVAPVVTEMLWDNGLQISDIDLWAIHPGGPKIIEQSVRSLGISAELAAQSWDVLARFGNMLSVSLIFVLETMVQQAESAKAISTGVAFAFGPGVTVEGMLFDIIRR

SMILES | type III PKS assay, LC-HRMS (ORAS; malonyl-CoA 2 mM) | type III PKS assay, LC-HRMS (CsyA) | type III PKS assay, LC-HRMS (PKS18) | type III PKS assay, LC-HRMS (ORAS; lauryl-CoA 1 mM)
CCCCCCCCCCCC(=O)SCCNC(=O)CCNC(=O)[C@H](O)C(C)(C)COP(=O)(O)OP(=O)(O)OC[C@H]1O[C@@H](n2cnc3c(N)ncnc32)[C@H](O)[C@@H]1OP(=O)(O)O [lauryl-CoA] | enzymatic reactions containing lauryl-CoA, malonyl-CoA and the type III PKSs as positive controls | enzymatic reactions containing lauryl-CoA, malonyl-CoA and the type III PKSs as positive controls | enzymatic reactions containing lauryl-CoA, malonyl-CoA and the type III PKSs as positive controls | –
CC(C)(COP(=O)(O)OP(=O)(O)OC[C@H]1O[C@@H](n2cnc3c(N)ncnc32)[C@H](O)[C@@H]1OP(=O)(O)O)[C@@H](O)C(=O)NCCC(=O)NCCSC(=O)CC(=O)O [malonyl-CoA] | – | – | enzymatic reactions containing lauryl-CoA, malonyl-CoA and the type III PKSs as positive controls | enzymatic reactions containing lauryl-CoA, malonyl-CoA and the type III PKSs as positive controls
